Data published in patent US20240025892A1 (priority 2020, published 2024).
Like-named read-outs stand apart in the source and are kept apart here.

Key:
[1] = target: Recombinant SIK2 (Homo sapiens (Human), UniProt Q9H0K1); test: biochemical
Protocol: Assays were performed in base reaction buffer (20 mM Hepes (pH 7.5), 10 mM MgCl2, 1 mM EGTA, 0.02% Brij35, 0.02 mg/mL BSA, 0.1 mM Na3VO4, 2 mM DTT, 1% DMSO). Compounds were dissolved in 100% DMSO in a 10 mM stock. […] Assays were performed for 20 minutes at room temperature, after which time ^33P-ATP (10 μCi/μL) was added followed by incubation for another 120 minutes at room temperature. Thereafter, radioactivity incorporated into the pEY peptide substrate was detected by filter-binding method. Kinase activity data were expressed as the percent remaining kinase activity in test samples compared to DMSO reactions. IC50 values and curve fits were obtained using Prism (GraphPad Software).

[2] = test system: RANKL; test: RANKL gene expression in Ocy454 cells (RT-qPCR); conditions: maximal RANKL fold induction versus DMSO, four hours;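 also: Ocy454 cells moved to 37 °C for osteocytic differentiation before compound exposure, RANKL mRNA by SYBR Green qRT-PCR, 2^−ΔΔCT with β-actin normalization, duplicate wells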
[3] = test system: CRTC2 (TORC2); test: CRTC2 nuclear translocation (PathHunter U2OS); assay type: cell-based; conditions: maximal CRTC2 nuclear translocation, U2OS cells, 90 minutes, maximum dose 10 μM
Excerpt: PathHunter® Nuclear Translocation cell lines are engineered to co-express two fusion proteins: a) Enzyme Donor (ED) tagged target protein; b) an Enzyme Acceptor (EA) tagged TAZ domain, derived from the CBP/P300 transcription factor, that localizes to the nucleus. Activation of the signaling pathway induces translocation of the ED-tagged target protein into the nucleus, which will force complementation of the two enzyme fragments, and result in the formation of a functional enzyme that will hydrolyze substrate and generate a chemiluminescent signal. U2OS CRTC2 (TORC2) translocation assays were performed in 384 well plates at Eurofins DiscoverX (Freemont, CA). Cells were treated with compounds for 90 minutes in experimental duplicates in 5 point dose response format (4-fold serial dilutions with a maximum dose of 10 μM) followed by […] readout on an Envision 2104 Multilabel Reader. In all experiments, forskolin was used as a positive control and maximal CRTC2 nuclear translocation induced by each compound is expressed as a percentage of the signal stimulated by forskolin.
Representative data are shown in FIG. 4A and presented as percent of the positive control (forskolin) signal.

[4] = recombinant SIK2 2.5 nM, 1 μM ATP, read-out: SIK2 IC50

Recombinant SIK2, sequence (Q9H0K1 whole entry): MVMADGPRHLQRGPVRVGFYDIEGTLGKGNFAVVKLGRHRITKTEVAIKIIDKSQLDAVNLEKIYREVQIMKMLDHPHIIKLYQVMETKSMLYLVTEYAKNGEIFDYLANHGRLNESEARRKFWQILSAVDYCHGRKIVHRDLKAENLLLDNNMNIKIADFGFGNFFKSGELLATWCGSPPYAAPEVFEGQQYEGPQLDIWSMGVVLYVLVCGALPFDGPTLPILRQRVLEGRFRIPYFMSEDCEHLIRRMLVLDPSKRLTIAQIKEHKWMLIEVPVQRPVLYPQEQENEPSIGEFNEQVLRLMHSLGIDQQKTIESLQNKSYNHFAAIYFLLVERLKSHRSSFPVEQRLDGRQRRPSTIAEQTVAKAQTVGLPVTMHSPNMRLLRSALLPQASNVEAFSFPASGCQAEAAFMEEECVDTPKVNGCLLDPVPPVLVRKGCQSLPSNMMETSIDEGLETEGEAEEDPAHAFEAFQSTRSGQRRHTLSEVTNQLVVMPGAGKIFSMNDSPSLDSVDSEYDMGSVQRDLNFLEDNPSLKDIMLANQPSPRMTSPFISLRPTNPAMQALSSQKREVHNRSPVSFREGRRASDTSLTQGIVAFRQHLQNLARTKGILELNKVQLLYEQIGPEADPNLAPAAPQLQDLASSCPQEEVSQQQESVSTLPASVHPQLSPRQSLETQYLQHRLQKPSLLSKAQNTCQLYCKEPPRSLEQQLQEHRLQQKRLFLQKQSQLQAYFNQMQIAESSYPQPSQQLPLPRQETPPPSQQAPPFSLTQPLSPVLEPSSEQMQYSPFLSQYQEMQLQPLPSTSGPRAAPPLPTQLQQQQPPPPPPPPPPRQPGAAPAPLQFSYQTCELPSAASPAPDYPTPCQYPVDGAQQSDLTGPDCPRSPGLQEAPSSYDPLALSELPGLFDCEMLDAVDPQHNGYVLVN

Row | SMILES | IC50 [1, 4] [nM] | RANKL Fold Induction [2] [fold] | CRTC2 Efficacy (% of forskolin) [3] | IC50 ([1]; initial in vitro testing, read-out: SIK2 inhibition IC50) [nM]
1 | Cn1cnc(-c2cccc3ccc(-n4cnc5cc(OCC6(C)COC6)ccc54)nc23)c1 [Example 18, 8-(1-Methyl-1H-imidazol-4-yl)-2-(5-((3-methyloxetan-3-yl)methoxy)-1H-benzo[d]imidazol-1-yl)quinoline] | 185 | 7.49 | – | –
2 | N#Cc1ccc(-c2cnc3cc(C(=O)NCc4nc5ccccc5o4)ccn23)cc1 [Example 26, N-(benzo[d]oxazol-2-ylmethyl)-3-(4-cyanophenyl)imidazo[1,2-a]pyridine-7-carboxamide] | 83 | 0.55 | 1.3 % of forskolin | –
3 | N#Cc1ccc(-c2cnc3cc(-c4cn(C5CC5)nn4)ccn23)cc1 [Example 66, 4-[7-(1-Cyclopropyltriazol-4-yl)imidazo[1,2-a]pyridin-3-yl]benzonitrile] | 37 | – | – | –
4 | CC1(COc2ccc3c(c2)ncn3-c2ccc3cccc(OC4CNC4)c3n2)COC1 [Example 9, 8-(azetidin-3-yloxy)-2-(5-((3-methyloxetan-3-yl)methoxy)-1H-benzo[d]imidazol-1-yl)quinoline] | 24.6 | 9.69 | – | –
5 | CCn1nnc(-c2ccn3c(-c4ccc(C#N)cc4)cnc3c2)n1 [Example 67, 4-[7-(2-Ethyltetrazol-5-yl)imidazo[1,2-a]pyridin-3-yl]benzonitrile] | 227 | 0.47 | – | –
6 | Cc1ccc(CN(C)C(=O)c2ccn3c(-c4ccc(C#N)cc4)cnc3c2)cn1 [Example 30, 3-(4-Cyanophenyl)-N-methyl-N-((6-methylpyridin-3-yl)methyl)imidazo[1,2-a]pyridine-7-carboxamide] | 1700 | – | 1.7 % of forskolin | –
7 | N#Cc1ccc(-c2cnc3cc(C(=O)NCc4ccnnc4)ccn23)cc1 [Example 20, 3-(4-cyanophenyl)-N-(pyridazin-4-ylmethyl)imidazo[1,2-a]pyridine-7-carboxamide] | 109 | – | 9.4 % of forskolin | –
8 | COc1cc(-c2cnc3cc(OCC4(C)COC4)ccn23)cc(OC)c1C#N [Example 40, 2,6-dimethoxy-4-(7-((3-methyloxetan-3-yl)methoxy)imidazo[1,2-a]pyridin-3-yl)benzonitrile] | 9.87 | – | – | –
9 | CC1(COc2ccc3c(c2)ncn3-c2ccc3cccc(N4CCC5(CCNC5)C4)c3n2)COC1 (centres unmarked) [Example 6, 2-(5-((3-methyloxetan-3-yl)methoxy)-1H-benzo[d]imidazol-1-yl)-8-(2,7-diazaspiro[4.4]nonan-2-yl)quinoline] | 5.75 | – | 127.8 % of forskolin | –
10 | N#Cc1ccc(-c2cnc3cc(-c4cnn(C5COC5)c4)ccn23)cc1 [Example 50, 4-(7-(1-(oxetan-3-yl)-1H-pyrazol-4-yl)imidazo[1,2-a]pyridin-3-yl)benzonitrile] | 2.34 | 15.84 | – | –
11 | Cc1ccc(CNC(=O)c2ccn3c(-c4ccc(C#N)cc4)cnc3c2)cn1 [Example 19, 3-(4-cyanophenyl)-N-[(6-methyl-3-pyridyl)methyl]imidazo[1,2-a]pyridine-7-carboxamide] | – | 1.04 | 27 % of forskolin | –
12 | N#Cc1ccc(-c2cnc3nc(C(=O)NCc4cccnc4)ccn23)cc1 [Example 36, 3-(4-cyanophenyl)-N-(3-pyridylmethyl)imidazo[1,2-a]pyrimidine-7-carboxamide] | 5300 | – | 2.5 % of forskolin | –
13 | CCc1nnc(-c2c(F)cc(-c3cnc4cc(-c5cnn(C)c5)ccn34)cc2F)o1 [Example 58, 2-(2,6-difluoro-4-(7-(1-methyl-1H-pyrazol-4-yl)imidazo[1,2-a]pyridin-3-yl)phenyl)-5-ethyl-1,3,4-oxadiazole] | 1080 | 1.26 | – | –
14 | N#Cc1ccc(-c2cnn3cc(-c4cnn(C5CC5)c4)cnc23)cc1 [Example 64, 4-[6-(1-Cyclopropylpyrazol-4-yl)pyrazolo[1,5-a]pyrimidin-3-yl]benzonitrile] | 8.8 | 0.47 | – | –
15 | N#Cc1ccc(-n2cnc3cc(-c4cnn(C5CC5)c4)ccc32)cc1 [Example 44, 4-(5-(1-Cyclopropyl-1H-pyrazol-4-yl)-1H-benzo[d]imidazol-1-yl)benzonitrile] | 2.34 | 3.07 | – | –
16 | CC1(COc2ccn3c(-c4ccc5cccc(N6CCC(N)CC6)c5n4)cnc3c2)COC1 [Example 13, 1-(2-(7-((3-Methyloxetan-3-yl)methoxy)imidazo[1,2-a]pyridin-3-yl)quinolin-8-yl)piperidin-4-amine] | 4.19 | – | 140.6 % of forskolin | –

Row | SMILES | IC50 [1, 4] [nM] | RANKL Fold Induction [2] [fold] | CRTC2 Efficacy (% of forskolin) [3] | IC50 ([1]; initial in vitro testing, read-out: SIK2 inhibition IC50) [nM]
17 | CCc1nnc(-c2c(Cl)cc(-c3cnc4cc(-c5cnn(C)c5)ccn34)cc2Cl)o1 [Example 59, 2-(2,6-dichloro-4-(7-(1-methyl-1H-pyrazol-4-yl)imidazo[1,2-a]pyridin-3-yl)phenyl)-5-ethyl-1,3,4-oxadiazole] | 270 | – | – | –
18 | CCn1cc(-c2ccc3c(c2)ncn3-c2ccc(C#N)cc2)cn1 [Example 43, 4-[5-(1-Ethylpyrazol-4-yl)benzimidazol-1-yl]benzonitrile] | 5.89 | 7.09 | – | –
19 | Cc1cn(-c2cccc3ccc(-n4cnc5cc(OCC6(C)COC6)ccc54)nc23)cn1 [Example 1, 8-(4-Methylimidazol-1-yl)-2-[5-[(3-methyloxetan-3-yl)methoxy]benzimidazol-1-yl]quinoline] | 30.7 | 3.08 | – | –
20 | N#Cc1ccc(-n2cnc3cc(C(=O)NCc4cccnc4)ccc32)cc1 [Example 32, 1-(4-cyanophenyl)-N-(3-pyridylmethyl)benzimidazole-5-carboxamide] | – | – | 10.6 % of forskolin | –
21 | N#Cc1ccc(-c2cnc3cc(C(=O)NCc4ccco4)ccn23)cc1 [Example 27, 3-(4-cyanophenyl)-N-(furan-2-ylmethyl)imidazo[1,2-a]pyridine-7-carboxamide] | 132 | – | 5.3 % of forskolin | –
22 | CCn1cc(-c2cnc3c(-c4ccc(C#N)cc4)cnn3c2)cn1 [Example 63, 4-[6-(1-Ethylpyrazol-4-yl)pyrazolo[1,5-a]pyrimidin-3-yl]benzonitrile] | 3.4 | 0.89 | – | –
23 | COc1cc(-c2cnc3cc(-c4cnn(C5CC5)c4)ccn23)cc(OC)c1C(=O)NN [Cmpd. 55A, 4-(7-(1-cyclopropyl-1H-pyrazol-4-yl)imidazo[1,2-a]pyridin-3-yl)-2,6-dimethoxybenzohydrazide] | – | – | – | < 0.1
24 | CCn1cc(-c2ccn3c(-c4ccc(C#N)cc4)cnc3c2)cn1 [Example 45, 4-[7-(1-Ethylpyrazol-4-yl)imidazo[1,2-a]pyridin-3-yl]benzonitrile] | – | 9.41 | 85 % of forskolin | –
25 | CN1CC(Oc2cccc3ccc(-n4cnc5cc(OCC6(C)COC6)ccc54)nc23)C1 [Example 11, 8-((1-Methylazetidin-3-yl)oxy)-2-(5-((3-methyloxetan-3-yl)methoxy)-1H-benzo[d]imidazol-1-yl)quinoline] | 22.7 | 1.38 | – | –
26 | N#Cc1ccc(-c2cnc3cc(C(=O)NCc4cnccn4)ccn23)cc1 [Example 21, 3-(4-cyanophenyl)-N-(pyrazin-2-ylmethyl)imidazo[1,2-a]pyridine-7-carboxamide] | 118 | – | 9.9 % of forskolin | –
27 | N#Cc1ccc(-c2cnn3cc(-c4cnn(C5CC5)c4)ccc23)cc1 [Example 54, 4-(6-(1-cyclopropyl-1H-pyrazol-4-yl)pyrazolo[1,5-a]pyridin-3-yl)benzonitrile] | 2.24 | 9.07 | – | –
28 | N#Cc1ccc(-n2cnc3cc(C(=O)NCc4nc5ccccc5[nH]4)ccc32)cc1 [Example 34, N-((1H-benzo[d]imidazol-2-yl)methyl)-1-(4-cyanophenyl)-1H-benzo[d]imidazole-5-carboxamide] | 20 | – | 14 % of forskolin | –
29 | CCn1cc(-c2c(OC)cc(-c3cnn4cc(-c5cnn(C6CC6)c5)ccc34)cc2OC)nn1 [Example 65, 6-(1-Cyclopropylpyrazol-4-yl)-3-[4-(1-ethyltriazol-4-yl)-3,5-dimethoxy-phenyl]pyrazolo[1,5-a]pyridine] | 23.7 | – | – | –
30 | N#Cc1ccc(-c2cnc3cc(-n4cnc(C5CC5)c4)ccn23)cc1 [Example 48, 4-[7-(4-Cyclopropylimidazol-1-yl)imidazo[1,2-a]pyridin-3-yl]benzonitrile] | 7.65 | – | – | –
31 | CCn1cc(-c2ccn3c(-c4ccc(C#N)nc4)cnc3c2)cn1 [Example 46, 5-(7-(1-ethyl-1H-pyrazol-4-yl)imidazo[1,2-a]pyridin-3-yl)picolinonitrile] | 14 | 3.44 | – | –
